Test: xn = mol fraction of the nth substance listed

CCCCCCCC + CCCCCCCCCC
viscosity [mPa·s]
Conditions | 297.95 K | 298.15 K | 313.05 K
101 kPa, x1 = 0.1384 | 0.8136 | – | 0.6803
101 kPa, x1 = 0.2144 | 0.7783 | – | 0.6439
101 kPa, x1 = 0.3015 | 0.7465 | – | 0.6261
101 kPa, x1 = 0.3894 | 0.6993 | – | 0.5975
101 kPa, x1 = 0.452 | 0.6767 | – | 0.5817
101 kPa, x1 = 0.601 | 0.6312 | – | 0.5417
101 kPa, x1 = 0.6988 | 0.5898 | – | 0.5129
101 kPa, x1 = 0.8208 | 0.5543 | – | 0.4761
101 kPa, x1 = 0.8858 | 0.5327 | – | 0.4643
101.33 kPa, x1 = 0.1059 | – | 0.8166 | –
101.33 kPa, x1 = 0.2142 | – | 0.7747 | –
101.33 kPa, x1 = 0.3038 | – | 0.7382 | –
101.33 kPa, x1 = 0.4052 | – | 0.6937 | –
101.33 kPa, x1 = 0.5057 | – | 0.6694 | –
101.33 kPa, x1 = 0.6061 | – | 0.6305 | –
101.33 kPa, x1 = 0.7032 | – | 0.6018 | –
101.33 kPa, x1 = 0.8002 | – | 0.5722 | –
101.33 kPa, x1 = 0.9058 | – | 0.5366 | –

c1ccccc1 + CCCCCC
Conditions | viscosity [mPa·s]
293.15 K, 101.33 kPa, x1 = 0.1713 | 0.327
293.15 K, 101.33 kPa, x1 = 0.3148 | 0.345
293.15 K, 101.33 kPa, x1 = 0.4632 | 0.371
293.15 K, 101.33 kPa, x1 = 0.5799 | 0.406
293.15 K, 101.33 kPa, x1 = 0.7266 | 0.454
293.15 K, 101.33 kPa, x1 = 0.8082 | 0.494
293.15 K, 101.33 kPa, x1 = 0.9173 | 0.57
298 K, 101.33 kPa, x1 = 0.1026 | 0.3104
298 K, 101.33 kPa, x1 = 0.2013 | 0.3191
298 K, 101.33 kPa, x1 = 0.2817 | 0.3276
298 K, 101.33 kPa, x1 = 0.4385 | 0.3516
298 K, 101.33 kPa, x1 = 0.5967 | 0.3871
298 K, 101.33 kPa, x1 = 0.7149 | 0.4256
298 K, 101.33 kPa, x1 = 0.794 | 0.46
298 K, 101.33 kPa, x1 = 0.8993 | 0.5212
298.1 K, 101 kPa, x2 = 0.2 | 0.469
298.1 K, 101 kPa, x2 = 0.4 | 0.4
298.1 K, 101 kPa, x2 = 0.5 | 0.377
298.1 K, 101 kPa, x2 = 0.6 | 0.359
298.1 K, 101 kPa, x2 = 0.8 | 0.334
298.15 K, 101 kPa, x2 = 0.07 | 0.556
298.15 K, 101 kPa, x2 = 0.182 | 0.5
298.15 K, 101 kPa, x2 = 0.265 | 0.489
298.15 K, 101 kPa, x2 = 0.405 | 0.429
298.15 K, 101 kPa, x2 = 0.563 | 0.4
298.15 K, 101.33 kPa, x1 = 0.0651 | 0.2983
298.15 K, 101.33 kPa, x1 = 0.1218 | 0.3034
298.15 K, 101.33 kPa, x1 = 0.1281 | 0.3134
298.15 K, 101.33 kPa, x1 = 0.2665 | 0.327
298.15 K, 101.33 kPa, x1 = 0.2763 | 0.3184
298.15 K, 101.33 kPa, x1 = 0.405 | 0.3471
298.15 K, 101.33 kPa, x1 = 0.4144 | 0.339
298.15 K, 101.33 kPa, x1 = 0.5704 | 0.3822
298.15 K, 101.33 kPa, x1 = 0.5822 | 0.3759
298.15 K, 101.33 kPa, x1 = 0.7092 | 0.4165
298.15 K, 101.33 kPa, x1 = 0.7216 | 0.4254
298.15 K, 101.33 kPa, x1 = 0.821 | 0.4673
298.15 K, 101.33 kPa, x1 = 0.8811 | 0.5139
298.15 K, 101.33 kPa, x1 = 0.9055 | 0.5208
298.15 K, 101.33 kPa, x2 = 0.0488 | 0.55
298.15 K, 101.33 kPa, x2 = 0.05393 | 0.5662
298.15 K, 101.33 kPa, x2 = 0.1122 | 0.5225
298.15 K, 101.33 kPa, x2 = 0.1676 | 0.466
298.15 K, 101.33 kPa, x2 = 0.2079 | 0.472
298.15 K, 101.33 kPa, x2 = 0.2486 | 0.434
298.15 K, 101.33 kPa, x2 = 0.3095 | 0.4294
298.15 K, 101.33 kPa, x2 = 0.3321 | 0.397
298.15 K, 101.33 kPa, x2 = 0.3638 | 0.386
298.15 K, 101.33 kPa, x2 = 0.4168 | 0.373
298.15 K, 101.33 kPa, x2 = 0.4197 | 0.3921
298.15 K, 101.33 kPa, x2 = 0.4682 | 0.358
298.15 K, 101.33 kPa, x2 = 0.5004 | 0.3712
298.15 K, 101.33 kPa, x2 = 0.5206 | 0.347
298.15 K, 101.33 kPa, x2 = 0.5934 | 0.3533
298.15 K, 101.33 kPa, x2 = 0.626 | 0.328
298.15 K, 101.33 kPa, x2 = 0.6857 | 0.3394
298.15 K, 101.33 kPa, x2 = 0.7434 | 0.312
298.15 K, 101.33 kPa, x2 = 0.7913 | 0.3268
298.15 K, 101.33 kPa, x2 = 0.8753 | 0.299
298.15 K, 101.33 kPa, x2 = 0.8834 | 0.3202
298.15 K, 101.33 kPa, x2 = 0.9498 | 0.294
308.15 K, 101 kPa, x2 = 0.07 | 0.486
308.15 K, 101 kPa, x2 = 0.182 | 0.441
308.15 K, 101 kPa, x2 = 0.265 | 0.415
308.15 K, 101 kPa, x2 = 0.405 | 0.384
308.15 K, 101 kPa, x2 = 0.563 | 0.361
323.15 K, 101 kPa, x2 = 0.07 | 0.407
323.15 K, 101 kPa, x2 = 0.182 | 0.374
323.15 K, 101 kPa, x2 = 0.265 | 0.356
323.15 K, 101 kPa, x2 = 0.405 | 0.334
323.15 K, 101 kPa, x2 = 0.563 | 0.32

CCOCCOCCO + O=C1CCCN1
298.15 K, 101 kPa
Conditions | viscosity [mPa·s]
x1 = 0.0021 | 14.17
x1 = 0.004 | 14.1
x1 = 0.0086 | 14
x1 = 0.0117 | 13.9
x1 = 0.0212 | 13.57
x1 = 0.0348 | 13.2
x1 = 0.0525 | 12.63
x1 = 0.0788 | 12.03
x1 = 0.108 | 11.37
x1 = 0.1478 | 10.61
x1 = 0.1914 | 9.859
x1 = 0.2318 | 9.217
x1 = 0.2798 | 8.602
x1 = 0.3222 | 8.116
x1 = 0.3673 | 7.637
x1 = 0.4326 | 7.009
x1 = 0.4635 | 6.788
x1 = 0.5199 | 6.331
x1 = 0.5639 | 6.038
x1 = 0.6088 | 5.76
x1 = 0.6756 | 5.37
x1 = 0.7363 | 5.074
x1 = 0.7879 | 4.842
x1 = 0.8388 | 4.665
x1 = 0.8795 | 4.494
x1 = 0.9249 | 4.308
x1 = 0.9572 | 4.175
x1 = 0.977 | 4.003
x2 = 0.0069 | 3.885

CCCCCCCCCCCCCC + CCCCCCC
101 kPa, x2 = 0.5
Conditions | viscosity [mPa·s]
298 K | 1.031
318 K | 0.7754

CN(C)C=O + CCO
viscosity [mPa·s], 101 kPa
Conditions | 293.15 K | 298.15 K | 303.15 K | 313.15 K | 323.15 K
x1 = 0.3863 | – | 0.881 | – | – | –
x1 = 0.5 | – | – | 0.758 | 0.649 | 0.563
x2 = 0.0999 | 0.871 | 0.819 | 0.77 | 0.682 | 0.61
x2 = 0.2 | 0.876 | 0.818 | 0.767 | 0.68 | 0.604
x2 = 0.3 | 0.882 | 0.822 | 0.77 | 0.681 | 0.603
x2 = 0.4 | 0.881 | 0.821 | 0.767 | 0.674 | 0.596
x2 = 0.5001 | 0.872 | 0.813 | 0.759 | 0.668 | 0.592
x2 = 0.6 | 0.886 | 0.825 | 0.769 | 0.67 | 0.59
x2 = 0.7 | 0.919 | 0.852 | 0.791 | 0.685 | 0.598
x2 = 0.8 | 0.97 | 0.897 | 0.828 | 0.712 | 0.616
x2 = 0.9001 | 1.067 | 0.977 | 0.897 | 0.762 | 0.651

O=[N+]([O-])c1ccccc1 + CCCCOC(C)=O
viscosity [mPa·s], 101 kPa
Conditions | 298.15 K | 308.15 K
x2 = 0.0477 | 1.576 | 1.399
x2 = 0.151 | 1.23 | 1.152
x2 = 0.2493 | 1.006 | 0.979
x2 = 0.35 | 0.848 | 0.849
x2 = 0.4488 | 0.743 | 0.755
x2 = 0.5 | 0.704 | 0.717
x2 = 0.5514 | 0.672 | 0.685
x2 = 0.6512 | 0.632 | 0.637
x2 = 0.7484 | 0.616 | 0.607
x2 = 0.8504 | 0.622 | 0.591
x2 = 0.9435 | 0.648 | 0.589

ClC(Cl)=C(Cl)Cl + c1ccccc1
Conditions | viscosity [mPa·s]
298.15 K, 101 kPa, x2 = 0.0876 | 0.8015
298.15 K, 101 kPa, x2 = 0.1609 | 0.771
298.15 K, 101 kPa, x2 = 0.3555 | 0.7018
298.15 K, 101 kPa, x2 = 0.452 | 0.6743
298.15 K, 101 kPa, x2 = 0.6216 | 0.6351
298.15 K, 101 kPa, x2 = 0.6602 | 0.6286
298.15 K, 101 kPa, x2 = 0.708 | 0.6209
298.15 K, 101 kPa, x2 = 0.781 | 0.6115
298.15 K, 101 kPa, x2 = 0.8752 | 0.6029
298.15 K, 101 kPa, x2 = 0.9037 | 0.6011
303.15 K, 101.33 kPa, x1 = 0.1913 | 0.577
303.15 K, 101.33 kPa, x1 = 0.2749 | 0.584
303.15 K, 101.33 kPa, x1 = 0.3761 | 0.605
303.15 K, 101.33 kPa, x1 = 0.4668 | 0.624
303.15 K, 101.33 kPa, x1 = 0.5756 | 0.648
303.15 K, 101.33 kPa, x1 = 0.6664 | 0.675
303.15 K, 101.33 kPa, x1 = 0.7757 | 0.712
303.15 K, 101.33 kPa, x1 = 0.8828 | 0.746

— the CheMixHub viscosity set
